Data published in PubChem BioAssay AID2060912 (Molecular Pharmacology Branch, DTP, NCI, 2025).

Tested on: HUVEC/MSC spheroids viability
Experiment: Human HUVEC/MSC cell line growth inhibition [KRAS2];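 for viability, T/C: percent of DMSO vehicle control luminescence so 100% = untreated viability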
Conditions: for IC50: curve of first compound; for viability, T/C: stronger effect = lower value
How it was run: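 Stroma-only multicellular spheroids, formed from HUVEC and human MSCs at passages </=5, received RAS-pathway inhibitors with or without a second targeted drug. Dosing followed half-log dilutions from clinically achievable levels.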

[1] = second compound 0.00949 µM, first compound 0.0316 µM
[2] = second compound 0.00949 µM, first compound 0.1 µM
[3] = second compound 0.00949 µM, first compound 0.316 µM
[4] = second compound 0.00949 µM, first compound 1 µM
[5] = second compound 0.00949 µM, first compound 3.16 µM
[6] = second compound 0.00949 µM, first compound 10 µM
[7] = second compound 0.03 µM, first compound 0.0316 µM
[8] = second compound 0.03 µM, first compound 0.1 µM
[9] = second compound 0.03 µM, first compound 0.316 µM
[10] = second compound 0.03 µM, first compound 1 µM
[11] = second compound 0.03 µM, first compound 3.16 µM
[12] = second compound 0.03 µM, first compound 10 µM
[13] = second compound 0.0949 µM, first compound 0.0316 µM
[14] = second compound 0.0949 µM, first compound 0.1 µM
[15] = second compound 0.0949 µM, first compound 0.316 µM
[16] = second compound 0.0949 µM, first compound 1 µM
[17] = second compound 0.0949 µM, first compound 3.16 µM
[18] = second compound 0.0949 µM, first compound 10 µM
[19] = second compound 0.3 µM, first compound 0.0316 µM
[20] = second compound 0.3 µM, first compound 0.1 µM
[21] = second compound 0.3 µM, first compound 0.316 µM
[22] = second compound 0.3 µM, first compound 1 µM
[23] = second compound 0.3 µM, first compound 3.16 µM
[24] = second compound 0.3 µM, first compound 10 µM
[25] = second compound 0.949 µM, first compound 0.0316 µM
[26] = second compound 0.949 µM, first compound 0.1 µM
[27] = second compound 0.949 µM, first compound 0.316 µM
[28] = second compound 0.949 µM, first compound 1 µM
[29] = second compound 0.949 µM, first compound 3.16 µM
[30] = second compound 0.949 µM, first compound 10 µM
[31] = second compound 3 µM, first compound 0.0316 µM
[32] = second compound 3 µM, first compound 0.1 µM
[33] = second compound 3 µM, first compound 0.316 µM
[34] = second compound 3 µM, first compound 1 µM
[35] = second compound 3 µM, first compound 3.16 µM
[36] = second compound 3 µM, first compound 10 µM
[37] = second compound 0.00949 µM, first compound 0.000316 µM
[38] = second compound 0.00949 µM, first compound 0.001 µM
[39] = second compound 0.00949 µM, first compound 0.00316 µM
[40] = second compound 0.00949 µM, first compound 0.01 µM
[41] = second compound 0.03 µM, first compound 0.000316 µM
[42] = second compound 0.03 µM, first compound 0.001 µM
[43] = second compound 0.03 µM, first compound 0.00316 µM
[44] = second compound 0.03 µM, first compound 0.01 µM
[45] = second compound 0.0949 µM, first compound 0.000316 µM
[46] = second compound 0.0949 µM, first compound 0.001 µM
[47] = second compound 0.0949 µM, first compound 0.00316 µM
[48] = second compound 0.0949 µM, first compound 0.01 µM
[49] = second compound 0.3 µM, first compound 0.000316 µM
[50] = second compound 0.3 µM, first compound 0.001 µM
[51] = second compound 0.3 µM, first compound 0.00316 µM
[52] = second compound 0.3 µM, first compound 0.01 µM
[53] = second compound 0.949 µM, first compound 0.000316 µM
[54] = second compound 0.949 µM, first compound 0.001 µM
[55] = second compound 0.949 µM, first compound 0.00316 µM
[56] = second compound 0.949 µM, first compound 0.01 µM
[57] = second compound 3 µM, first compound 0.000316 µM
[58] = second compound 3 µM, first compound 0.001 µM
[59] = second compound 3 µM, first compound 0.00316 µM
[60] = second compound 3 µM, first compound 0.01 µM

CC(C)NCC(C(=O)N1CCN(c2ncnc3c2C(C)CC3O)CC1)c1ccc(Cl)cc1 (stereo not given) + C=CC(=O)N1CCN(c2nc(OCC3CCCN3C)nc3c2CCN(c2cccc4cccc(C)c24)C3)CC1CC#N
IC50 (second compound 0.00949 µM): > 10000 nM
IC50 (second compound 0.03 µM): > 10000 nM
IC50 (second compound 0.0949 µM): > 10000 nM
IC50 (second compound 0.3 µM): 6170 nM
IC50 (second compound 0.949 µM): > 10000 nM
IC50 (second compound 3 µM): > 10000 nM
viability, T/C [1]: 102%
viability, T/C [2]: 92.3%
viability, T/C [3]: 98.8%
viability, T/C [4]: 66.7%
viability, T/C [5]: 67.7%
viability, T/C [6]: 57.2%
viability, T/C [7]: 85.8%
viability, T/C [8]: 91.8%
viability, T/C [9]: 94.8%
viability, T/C [10]: 61.3%
viability, T/C [11]: 65.4%
viability, T/C [12]: 46.1%
viability, T/C [13]: 95.4%
viability, T/C [14]: 97.5%
viability, T/C [15]: 78.2%
viability, T/C [16]: 79.8%
viability, T/C [17]: 53.4%
viability, T/C [18]: 57.4%
viability, T/C [19]: 77.7%
viability, T/C [20]: 84.8%
viability, T/C [21]: 84%
viability, T/C [22]: 71.8%
viability, T/C [23]: 56.4%
viability, T/C [24]: 45.6%
viability, T/C [25]: 67.4%
viability, T/C [26]: 82.2%
viability, T/C [27]: 68.6%
viability, T/C [28]: 58%
viability, T/C [29]: 57.8%
viability, T/C [30]: 56%
viability, T/C [31]: 83.4%
viability, T/C [32]: 74.5%
viability, T/C [33]: 81.2%
viability, T/C [34]: 68.5%
viability, T/C [35]: 49.3%
viability, T/C [36]: 51.9%

CC(C)n1nc(-c2ccc3oc(N)nc3c2)c2c(N)ncnc21 + C=CC(=O)N1CCN(c2nc(OCC3CCCN3C)nc3c2CCN(c2cccc4cccc(C)c24)C3)CC1CC#N
IC50 (second compound 0.00949 µM): 6.33 nM
IC50 (second compound 0.03 µM): 6.8 nM
IC50 (second compound 0.0949 µM): 4.34 nM
IC50 (second compound 0.3 µM): 3.35 nM
IC50 (second compound 0.949 µM): 0.512 nM
IC50 (second compound 3 µM): 22.2 nM
viability, T/C [37]: 80.6%
viability, T/C [38]: 64.1%
viability, T/C [39]: 56.1%
viability, T/C [40]: 43.1%
viability, T/C [1]: 48.3%
viability, T/C [2]: 39.8%
viability, T/C [41]: 69.5%
viability, T/C [42]: 65.7%
viability, T/C [43]: 44.1%
viability, T/C [44]: 54.1%
viability, T/C [7]: 46.8%
viability, T/C [8]: 42%
viability, T/C [45]: 80.1%
viability, T/C [46]: 64.7%
viability, T/C [47]: 48.4%
viability, T/C [48]: 49%
viability, T/C [13]: 41.1%
viability, T/C [14]: 40.8%
viability, T/C [49]: 59.7%
viability, T/C [50]: 67.6%
viability, T/C [51]: 50.5%
viability, T/C [52]: 43.5%
viability, T/C [19]: 40.5%
viability, T/C [20]: 36%
viability, T/C [53]: 57.5%
viability, T/C [54]: 47.5%
viability, T/C [55]: 42.7%
viability, T/C [56]: 34.5%
viability, T/C [25]: 44.6%
viability, T/C [26]: 44.3%
viability, T/C [57]: 62.5%
viability, T/C [58]: 66.8%
viability, T/C [59]: 54.1%
viability, T/C [60]: 58.6%
viability, T/C [31]: 45.3%
viability, T/C [32]: 40.7%

CC1(C)CCC(CN2CCN(c3ccc(C(=O)NS(=O)(=O)c4ccc(NCC5CCOCC5)c([N+](=O)[O-])c4)c(Oc4cnc5[nH]ccc5c4)c3)CC2)=C(c2ccc(Cl)cc2)C1 + C=CC(=O)N1CCN(c2nc(OCC3CCCN3C)nc3c2CCN(c2cccc4cccc(C)c24)C3)CC1CC#N
IC50 (second compound 0.00949 µM): 5120 nM
IC50 (second compound 0.03 µM): 4760 nM
IC50 (second compound 0.0949 µM): 4680 nM
IC50 (second compound 0.3 µM): 3930 nM
IC50 (second compound 0.949 µM): 3550 nM
IC50 (second compound 3 µM): 3410 nM
viability, T/C [1]: 105%
viability, T/C [2]: 86.2%
viability, T/C [3]: 96.9%
viability, T/C [4]: 91.4%
viability, T/C [5]: 83.5%
viability, T/C [6]: 3.48%
viability, T/C [7]: 99.3%
viability, T/C [8]: 92%
viability, T/C [9]: 111%
viability, T/C [10]: 94.4%
viability, T/C [11]: 76%
viability, T/C [12]: 3.1%
viability, T/C [13]: 83.1%
viability, T/C [14]: 103%
viability, T/C [15]: 84.1%
viability, T/C [16]: 94.6%
viability, T/C [17]: 75.1%
viability, T/C [18]: 1.65%
viability, T/C [19]: 73.4%
viability, T/C [20]: 75.9%
viability, T/C [21]: 78.7%
viability, T/C [22]: 96.8%
viability, T/C [23]: 61.3%
viability, T/C [24]: 1.21%
viability, T/C [25]: 67.6%
viability, T/C [26]: 80.8%
viability, T/C [27]: 72%
viability, T/C [28]: 87.5%
viability, T/C [29]: 55.3%
viability, T/C [30]: 3.31%
viability, T/C [31]: 81%
viability, T/C [32]: 86.1%
viability, T/C [33]: 94.8%
viability, T/C [34]: 71.2%
viability, T/C [35]: 54.7%
viability, T/C [36]: 0.24%

CCN1CCN(Cc2ccc(Nc3ncc(F)c(-c4cc(F)c5nc(C)n(C(C)C)c5c4)n3)nc2)CC1 + C=CC(=O)N1CCN(c2nc(OCC3CCCN3C)nc3c2CCN(c2cccc4cccc(C)c24)C3)CC1CC#N
IC50 (second compound 0.00949 µM): > 1000 nM
IC50 (second compound 0.03 µM): > 1000 nM
IC50 (second compound 0.0949 µM): > 1000 nM
IC50 (second compound 0.3 µM): > 1000 nM
IC50 (second compound 0.949 µM): > 1000 nM
IC50 (second compound 3 µM): > 1000 nM
viability, T/C [39]: 98.1%
viability, T/C [40]: 94.3%
viability, T/C [1]: 82.5%
viability, T/C [2]: 83.7%
viability, T/C [3]: 98.7%
viability, T/C [4]: 149%
viability, T/C [43]: 80.7%
viability, T/C [44]: 75.4%
viability, T/C [7]: 97.9%
viability, T/C [8]: 84.2%
viability, T/C [9]: 111%
viability, T/C [10]: 142%
viability, T/C [47]: 94.6%
viability, T/C [48]: 82%
viability, T/C [13]: 84.1%
viability, T/C [14]: 98.7%
viability, T/C [15]: 113%
viability, T/C [16]: 146%
viability, T/C [51]: 74.5%
viability, T/C [52]: 89%
viability, T/C [19]: 86.8%
viability, T/C [20]: 81.3%
viability, T/C [21]: 115%
viability, T/C [22]: 126%
viability, T/C [55]: 85.4%
viability, T/C [56]: 64.5%
viability, T/C [25]: 77.2%
viability, T/C [26]: 79.2%
viability, T/C [27]: 112%
viability, T/C [28]: 161%
viability, T/C [59]: 97.8%
viability, T/C [60]: 85.2%
viability, T/C [31]: 97.9%
viability, T/C [32]: 109%
viability, T/C [33]: 158%
viability, T/C [34]: 106%

Cn1ncnc1[C@H]1c2n[nH]c(=O)c3cc(F)cc(c23)N[C@@H]1c1ccc(F)cc1 + C=CC(=O)N1CCN(c2nc(OCC3CCCN3C)nc3c2CCN(c2cccc4cccc(C)c24)C3)CC1CC#N
IC50 (second compound 0.00949 µM): > 100 nM
IC50 (second compound 0.03 µM): > 100 nM
IC50 (second compound 0.0949 µM): > 100 nM
IC50 (second compound 0.3 µM): > 100 nM
IC50 (second compound 0.949 µM): > 100 nM
IC50 (second compound 3 µM): > 100 nM
viability, T/C [37]: 88%
viability, T/C [38]: 103%
viability, T/C [39]: 85.6%
viability, T/C [40]: 66.3%
viability, T/C [1]: 84.8%
viability, T/C [2]: 85.2%
viability, T/C [41]: 96.5%
viability, T/C [42]: 75.2%
viability, T/C [43]: 77.3%
viability, T/C [44]: 77.9%
viability, T/C [7]: 95.6%
viability, T/C [8]: 86.4%
viability, T/C [45]: 86.7%
viability, T/C [46]: 100%
viability, T/C [47]: 75%
viability, T/C [48]: 81.2%
viability, T/C [13]: 82.6%
viability, T/C [14]: 78.6%
viability, T/C [49]: 78.3%
viability, T/C [50]: 90.9%
viability, T/C [51]: 75.7%
viability, T/C [52]: 71.9%
viability, T/C [19]: 72.7%
viability, T/C [20]: 86.2%
viability, T/C [53]: 61.8%
viability, T/C [54]: 74.2%
viability, T/C [55]: 78.8%
viability, T/C [56]: 65.7%
viability, T/C [25]: 74.9%
viability, T/C [26]: 63.1%
viability, T/C [57]: 96.7%
viability, T/C [58]: 80.2%
viability, T/C [59]: 88.3%
viability, T/C [60]: 88.5%
viability, T/C [31]: 77.6%
viability, T/C [32]: 83.9%
